Values of other authors, collected in US9731015B2, “Water-soluble lipophilic natural compound formulations” (priority 2012, dated 2017).

Experiments:
[1] = humans, up to 4 g
[2] = background statement
[3] = animal pharmacokinetic studies

Row | Compound | quercetin in plasma after oral administration [1] | solubility in water [2] | bioavailability of oral doses [3]
1 | O=c1c(O)c(-c2ccc(O)c(O)c2)oc2cc(O)cc(O)c12 [quercetin] | No quercetin could be found in plasma |  | 
2 | COC1=C(OC)C(=O)C(C/C=C(\C)CC/C=C(\C)CC/C=C(\C)CC/C=C(\C)CC/C=C(\C)CC/C=C(\C)CC/C=C(\C)CC/C=C(\C)CC/C=C(\C)CCC=C(C)C)=C(C)C1=O [Co-enzyme Q-10, ubidecarenone] |  | insoluble in water | 
3 | Oc1ccc(C=Cc2cc(O)cc(O)c2)cc1 [resveratrol, 3,5,4′-trihydroxystilbene] |  | virtually insoluble in water | very low bioavailability
